Laboratory results as given in PubChem BioAssay (NCI).
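Values below derive from 48-hour exposures of cells grown in 96-well plates, with endpoints linearly interpolated between the two concentrations bracketing the appropriate inhibition level. GI50: concentration for 50% inhibition of growth. At the TGI there is no net growth.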

Experiments:
Assay in all cases: DTP human tumour cell line panel, 48 h
786-0 renal = test system: 786-0 renal
A498 renal = test system: A498 renal
A549 NSCLC = test system: A549 NSCLC
ACHN renal = test system: ACHN renal
BT-549 breast = test system: BT-549 breast
CAKI-1 renal = test system: CAKI-1 renal
CCRF-CEM leukemia = test system: CCRF-CEM leukemia
COLO 205 colon = test system: COLO 205 colon
DU-145 prostate = test system: DU-145 prostate
EKVX NSCLC = test system: EKVX NSCLC
HCC-2998 colon = test system: HCC-2998 colon
HCT-116 colon = test system: HCT-116 colon
HCT-15 colon = test system: HCT-15 colon
HL-60(TB) leukemia = test system: HL-60(TB) leukemia
HOP-62 NSCLC = test system: HOP-62 NSCLC
HOP-92 NSCLC = test system: HOP-92 NSCLC
HS 578T breast = test system: HS 578T breast
HT29 colon = test system: HT29 colon
IGROV1 ovarian = test system: IGROV1 ovarian
K-562 leukemia = test system: K-562 leukemia
KM12 colon = test system: KM12 colon
M14 melanoma = test system: M14 melanoma
MALME-3M melanoma = test system: MALME-3M melanoma
MCF7 breast = test system: MCF7 breast
MDA-MB-231 breast = test system: MDA-MB-231 breast
MDA-MB-435 = test system: MDA-MB-435
MOLT-4 leukemia = test system: MOLT-4 leukemia
NCI-H226 lung = test system: NCI-H226 lung
NCI-H23 lung = test system: NCI-H23 lung
NCI-H460 lung = test system: NCI-H460 lung
NCI-H522 lung = test system: NCI-H522 lung
NCI/ADR-RES ovarian = test system: NCI/ADR-RES ovarian
OVCAR-4 ovarian = test system: OVCAR-4 ovarian
OVCAR-5 ovarian = test system: OVCAR-5 ovarian
OVCAR-8 ovarian = test system: OVCAR-8 ovarian
PC-3 prostate = test system: PC-3 prostate
RPMI-8226 leukemia = test system: RPMI-8226 leukemia
RXF 393 renal = test system: RXF 393 renal
SF-268 CNS = test system: SF-268 CNS
SF-295 CNS = test system: SF-295 CNS
SF-539 CNS = test system: SF-539 CNS
SK-MEL-2 melanoma = test system: SK-MEL-2 melanoma
SK-MEL-28 melanoma = test system: SK-MEL-28 melanoma
SK-MEL-5 melanoma = test system: SK-MEL-5 melanoma
SK-OV-3 ovarian = test system: SK-OV-3 ovarian
SN12C renal = test system: SN12C renal
SNB-19 CNS = test system: SNB-19 CNS
SNB-75 CNS = test system: SNB-75 CNS
SR leukemia = test system: SR leukemia
SW-620 colon = test system: SW-620 colon
T-47D breast = test system: T-47D breast
TK-10 renal = test system: TK-10 renal
U251 CNS = test system: U251 CNS
UACC-257 melanoma = test system: UACC-257 melanoma
UACC-62 melanoma = test system: UACC-62 melanoma
UO-31 renal = test system: UO-31 renal

Compound: Nc1cc(F)ccc1NC(=O)c1ccc(NC(=O)C/C=C/c2cccnc2)cn1
- GI50 (786-0 renal): 2200 nM
- TGI (786-0 renal): > 50000 nM
- GI50 (A498 renal): 937 nM
- TGI (A498 renal): 3370 nM
- GI50 (A549 NSCLC): 3020 nM
- TGI (A549 NSCLC): > 50000 nM
- GI50 (ACHN renal): 2210 nM
- TGI (ACHN renal): > 50000 nM
- GI50 (BT-549 breast): 1300 nM
- TGI (BT-549 breast): 8310 nM
- GI50 (CAKI-1 renal): 1880 nM
- TGI (CAKI-1 renal): 13800 nM
- GI50 (CCRF-CEM leukemia): 200 nM
- TGI (CCRF-CEM leukemia): > 50000 nM
- GI50 (COLO 205 colon): 576 nM
- TGI (COLO 205 colon): 10400 nM
- GI50 (DU-145 prostate): 1100 nM
- TGI (DU-145 prostate): 5160 nM
- GI50 (EKVX NSCLC): 2490 nM
- TGI (EKVX NSCLC): > 50000 nM
- GI50 (HCC-2998 colon): 1430 nM
- TGI (HCC-2998 colon): 6980 nM
- GI50 (HCT-116 colon): 186 nM
- TGI (HCT-116 colon): 3420 nM
- GI50 (HCT-15 colon): 667 nM
- TGI (HCT-15 colon): > 50000 nM
- GI50 (HL-60(TB) leukemia): 525 nM
- TGI (HL-60(TB) leukemia): > 50000 nM
- GI50 (HOP-62 NSCLC): 1990 nM
- TGI (HOP-62 NSCLC): > 50000 nM
- GI50 (HOP-92 NSCLC): 699 nM
- TGI (HOP-92 NSCLC): 10900 nM
- GI50 (HS 578T breast): 1300 nM
- TGI (HS 578T breast): > 50000 nM
- GI50 (HT29 colon): 1500 nM
- TGI (HT29 colon): > 50000 nM
- GI50 (IGROV1 ovarian): 804 nM
- TGI (IGROV1 ovarian): > 50000 nM
- GI50 (K-562 leukemia): 302 nM
- TGI (K-562 leukemia): > 50000 nM
- GI50 (KM12 colon): 2800 nM
- TGI (KM12 colon): > 50000 nM
- GI50 (M14 melanoma): 563 nM
- TGI (M14 melanoma): > 50000 nM
- GI50 (MALME-3M melanoma): 465 nM
- TGI (MALME-3M melanoma): 4810 nM
- GI50 (MCF7 breast): 1110 nM
- TGI (MCF7 breast): 10000 nM
- GI50 (MDA-MB-231 breast): 8610 nM
- TGI (MDA-MB-231 breast): > 50000 nM
- GI50 (MDA-MB-435): 1250 nM
- TGI (MDA-MB-435): 7180 nM
- GI50 (MOLT-4 leukemia): 908 nM
- TGI (MOLT-4 leukemia): > 50000 nM
- GI50 (NCI-H226 lung): 2300 nM
- TGI (NCI-H226 lung): > 50000 nM
- GI50 (NCI-H23 lung): 1680 nM
- TGI (NCI-H23 lung): 37900 nM
- GI50 (NCI-H460 lung): 1430 nM
- TGI (NCI-H460 lung): > 50000 nM
- GI50 (NCI-H522 lung): 629 nM
- TGI (NCI-H522 lung): 30000 nM
- GI50 (NCI/ADR-RES ovarian): 1310 nM
- TGI (NCI/ADR-RES ovarian): > 50000 nM
- GI50 (OVCAR-4 ovarian): 2210 nM
- TGI (OVCAR-4 ovarian): > 50000 nM
- GI50 (OVCAR-5 ovarian): 781 nM
- TGI (OVCAR-5 ovarian): > 50000 nM
- GI50 (OVCAR-8 ovarian): 147 nM
- TGI (OVCAR-8 ovarian): > 50000 nM
- GI50 (PC-3 prostate): 1110 nM
- TGI (PC-3 prostate): > 50000 nM
- GI50 (RPMI-8226 leukemia): 240 nM
- TGI (RPMI-8226 leukemia): 2050 nM
- GI50 (RXF 393 renal): 938 nM
- TGI (RXF 393 renal): 3480 nM
- GI50 (SF-268 CNS): 2240 nM
- TGI (SF-268 CNS): > 50000 nM
- GI50 (SF-295 CNS): 1800 nM
- TGI (SF-295 CNS): 7360 nM
- GI50 (SF-539 CNS): 177 nM
- TGI (SF-539 CNS): 4000 nM
- GI50 (SK-MEL-2 melanoma): 2010 nM
- TGI (SK-MEL-2 melanoma): > 50000 nM
- GI50 (SK-MEL-28 melanoma): 1350 nM
- TGI (SK-MEL-28 melanoma): 4230 nM
- GI50 (SK-MEL-5 melanoma): 960 nM
- TGI (SK-MEL-5 melanoma): 1900 nM
- GI50 (SK-OV-3 ovarian): 2580 nM
- TGI (SK-OV-3 ovarian): > 50000 nM
- GI50 (SN12C renal): 364 nM
- TGI (SN12C renal): > 50000 nM
- GI50 (SNB-19 CNS): 2150 nM
- TGI (SNB-19 CNS): > 50000 nM
- GI50 (SNB-75 CNS): 794 nM
- TGI (SNB-75 CNS): 47300 nM
- GI50 (SR leukemia): 876 nM
- TGI (SR leukemia): > 50000 nM
- GI50 (SW-620 colon): 208 nM
- TGI (SW-620 colon): 12500 nM
- GI50 (T-47D breast): 750 nM
- TGI (T-47D breast): > 50000 nM
- GI50 (TK-10 renal): 673 nM
- TGI (TK-10 renal): 8160 nM
- GI50 (U251 CNS): 1510 nM
- TGI (U251 CNS): > 50000 nM
- GI50 (UACC-257 melanoma): 1650 nM
- TGI (UACC-257 melanoma): > 50000 nM
- GI50 (UACC-62 melanoma): 1310 nM
- TGI (UACC-62 melanoma): 5950 nM
- GI50 (UO-31 renal): 1630 nM
- TGI (UO-31 renal): > 50000 nM
